Source: the supplement of paper PMC10627819

How the values were obtained:
S. aureus DSM 20231 [1] = test: Bliss interaction score (quartile over a dose matrix) (fitness difference); higher = more antagonism (negative = synergy)
Procedure, shortened: (§1)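 Quartiles of the Bliss score were taken over technical, biological and donor/recipient replicates. That score is observed fitness minus the product of the single-drug fitness values, which were inferred from combination data. Fitness itself is OD595 at entry into stationary phase divided by the plate's robust no-drug mean, with a cap at 1.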

S. aureus Newman [2] = test: as above
Procedure, shortened: as §1

B. subtilis 168 = test: as above
Procedure, shortened: as §1

S. pneumoniae D39V [3] = test: as above
Procedure, shortened: as §1

S. aureus DSM 20231 [4] = test: fitness (endpoint OD595 vs no drug) (fraction); higher = more growth
Procedure, shortened: (§2)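 Volumes were 30 µl per well, or 55 µl for S. pneumoniae, in 384-well plates inoculated at OD595 0.01. Media were TSB, LB Lennox or CY at 37 °C, and OD595 was read every 30 min for 14 h with first-reading background subtraction. Fitness is the ratio of optical density at stationary-phase entry to the robust mean of no-drug controls. That ratio is capped at 1.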

S. aureus Newman [5] = test: as above
Procedure, shortened: as §2

S. pneumoniae D39V [6] = test: as above
Procedure, shortened: as §2
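For Bliss interaction score (quartile over a dose matrix) in this document: first quartile when negative (synergy) and third quartile when positive (antagonism).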

CC1(C)S[C@@H]2[C@H](NC(=O)[C@H](N)c3ccc(O)cc3)C(=O)N2[C@H]1C(=O)O [Amoxicillin] + COc1c(N2C[C@@H]3CCCN[C@@H]3C2)c(F)cc2c(=O)c(C(=O)O)cn(C3CC3)c12 [Moxifloxacin]
Details	Bliss interaction score
B. subtilis 168	0.0481
S. aureus DSM 20231 [1]	-0.0301
S. aureus Newman [2]	0.046
S. pneumoniae D39V [3]	0.0639

Details	fitness
S. aureus DSM 20231 [4], first compound 0.0625 µg/mL, partner 0.0075 µg/mL	0.51
S. aureus DSM 20231 [4], first compound 0.0625 µg/mL, partner 0.015 µg/mL	0.482
S. aureus DSM 20231 [4], first compound 0.0625 µg/mL, partner 0.03 µg/mL	0.403
S. aureus DSM 20231 [4], first compound 0.125 µg/mL, partner 0.0075 µg/mL	0.382
S. aureus DSM 20231 [4], first compound 0.125 µg/mL, partner 0.015 µg/mL	0.374
S. aureus DSM 20231 [4], first compound 0.125 µg/mL, partner 0.03 µg/mL	0.203
S. aureus DSM 20231 [4], first compound 0.25 µg/mL, partner 0.0075 µg/mL	0.152
S. aureus DSM 20231 [4], first compound 0.25 µg/mL, partner 0.015 µg/mL	0.119
S. aureus DSM 20231 [4], first compound 0.25 µg/mL, partner 0.03 µg/mL	0.034
S. aureus DSM 20231 [4], first compound 0.5 µg/mL, partner 0.0075 µg/mL	0.0102
S. aureus DSM 20231 [4], first compound 0.5 µg/mL, partner 0.015 µg/mL	0.0002
S. aureus DSM 20231 [4], first compound 0.5 µg/mL, partner 0.03 µg/mL	0.0026
S. aureus Newman [5], first compound 0.0625 µg/mL, partner 0.0075 µg/mL	0.715
S. aureus Newman [5], first compound 0.0625 µg/mL, partner 0.015 µg/mL	0.609
S. aureus Newman [5], first compound 0.125 µg/mL, partner 0.0075 µg/mL	0.705
S. pneumoniae D39V [6], first compound 0.0008 µg/mL, partner 0.005 µg/mL	0.968
S. pneumoniae D39V [6], first compound 0.0008 µg/mL, partner 0.01 µg/mL	0.977
S. pneumoniae D39V [6], first compound 0.0008 µg/mL, partner 0.02 µg/mL	0.913
S. pneumoniae D39V [6], first compound 0.0015 µg/mL, partner 0.005 µg/mL	0.972
S. pneumoniae D39V [6], first compound 0.0015 µg/mL, partner 0.01 µg/mL	0.967
S. pneumoniae D39V [6], first compound 0.0015 µg/mL, partner 0.02 µg/mL	0.905
S. pneumoniae D39V [6], first compound 0.0015 µg/mL, partner 0.0312 µg/mL	0.314
S. pneumoniae D39V [6], first compound 0.0015 µg/mL, partner 0.0625 µg/mL	0.147
S. pneumoniae D39V [6], first compound 0.0015 µg/mL, partner 0.125 µg/mL	0.0837
S. pneumoniae D39V [6], first compound 0.003 µg/mL, partner 0.005 µg/mL	0.92
S. pneumoniae D39V [6], first compound 0.003 µg/mL, partner 0.01 µg/mL	0.92
S. pneumoniae D39V [6], first compound 0.003 µg/mL, partner 0.02 µg/mL	0.901
S. pneumoniae D39V [6], first compound 0.003 µg/mL, partner 0.0312 µg/mL	0.277
S. pneumoniae D39V [6], first compound 0.003 µg/mL, partner 0.0625 µg/mL	0.211
S. pneumoniae D39V [6], first compound 0.003 µg/mL, partner 0.125 µg/mL	0.0689

one replicate
Details	fitness
S. aureus DSM 20231 [4], first compound 0.125 µg/mL, partner 0.06 µg/mL	0.388
S. aureus DSM 20231 [4], first compound 0.125 µg/mL, partner 0.12 µg/mL	0.0813
S. aureus DSM 20231 [4], first compound 0.25 µg/mL, partner 0.06 µg/mL	0.112
S. aureus DSM 20231 [4], first compound 0.25 µg/mL, partner 0.12 µg/mL	0.0126
S. aureus DSM 20231 [4], first compound 0.5 µg/mL, partner 0.06 µg/mL	0.0085
S. aureus DSM 20231 [4], first compound 0.5 µg/mL, partner 0.12 µg/mL	0.0156
S. pneumoniae D39V [6], first compound 0.0008 µg/mL, partner 0.0312 µg/mL	0.209
S. pneumoniae D39V [6], first compound 0.0008 µg/mL, partner 0.0625 µg/mL	0.167
S. pneumoniae D39V [6], first compound 0.0008 µg/mL, partner 0.125 µg/mL	0.103
S. pneumoniae D39V [6], first compound 0.006 µg/mL, partner 0.0312 µg/mL	0.0891
S. pneumoniae D39V [6], first compound 0.006 µg/mL, partner 0.0625 µg/mL	0.0684
S. pneumoniae D39V [6], first compound 0.006 µg/mL, partner 0.125 µg/mL	0.0138

CCN(CC)CCOC(=O)c1ccc(N)cc1 [Procaine] + Cn1nnc(-c2ccc(-c3ccc(N4C[C@H](CO)OC4=O)cc3F)cn2)n1 [Tedizolid]
Details	Bliss interaction score
B. subtilis 168	-0.0545
S. aureus DSM 20231 [1]	-0.0772
S. aureus Newman [2]	0.0692
S. pneumoniae D39V [3]	-0.0797

fitness
Details	first compound 85.5 µg/mL	first compound 171 µg/mL	first compound 342 µg/mL
S. aureus DSM 20231 [4], partner 0.0625 µg/mL	0.789	0.887	0.81
S. aureus DSM 20231 [4], partner 0.25 µg/mL	0.067	0.0661	0.0739
S. aureus Newman [5], partner 0.0625 µg/mL	≥ 1	0.972	0.972
S. aureus Newman [5], partner 0.125 µg/mL	0.969	0.939	0.951
S. pneumoniae D39V [6], partner 0.03125 µg/mL	0.989	0.975	0.97
S. pneumoniae D39V [6], partner 0.0625 µg/mL	0.954	0.943	0.973
S. pneumoniae D39V [6], partner 0.125 µg/mL	0.803	0.862	0.796

fitness, S. pneumoniae D39V [6], one replicate
Details	first compound 85.5 µg/mL	first compound 171 µg/mL	first compound 342 µg/mL
partner 0.25 µg/mL	0.67	0.744	0.695
partner 0.5 µg/mL	0.282	0.311	0.353

CCCCCCCCCC(=O)N[C@@H](Cc1c[nH]c2ccccc12)C(=O)N[C@H](CC(N)=O)C(=O)N[C@@H](CC(=O)O)C(=O)N[C@@H]1C(=O)NCC(=O)N[C@@H](CCCN)C(=O)N[C@@H](CC(=O)O)C(=O)N[C@H](C)C(=O)N[C@@H](CC(=O)O)C(=O)NCC(=O)N[C@H](CO)C(=O)N[C@@H]([C@H](C)CC(=O)O)C(=O)N[C@@H](CC(=O)c2ccccc2N)C(=O)O[C@@H]1C [Daptomycin] + Cn1nnc(-c2ccc(-c3ccc(N4C[C@H](CO)OC4=O)cc3F)cn2)n1 [Tedizolid]
Details	Bliss interaction score
B. subtilis 168	0.0472
S. aureus DSM 20231 [1]	0.0665
S. aureus Newman [2]	0.0584
S. pneumoniae D39V [3]	-0.141

fitness, S. aureus DSM 20231 [4], one replicate
Details	partner 0.0625 µg/mL	partner 0.125 µg/mL	partner 0.25 µg/mL
first compound 0.125 µg/mL	0.918	0.765	0.354
first compound 0.25 µg/mL	0.894	0.762	0.375

fitness
Details	partner 0.03125 µg/mL	partner 0.0625 µg/mL	partner 0.125 µg/mL	partner 0.25 µg/mL	partner 0.5 µg/mL
S. aureus DSM 20231 [4], first compound 0.5 µg/mL	–	0.896	0.832	0.322	–
S. aureus DSM 20231 [4], first compound 1 µg/mL	–	0.907	0.78	0.293	–
S. aureus DSM 20231 [4], first compound 2 µg/mL	–	0.896	0.677	0.389	–
S. aureus Newman [5], first compound 0.125 µg/mL	–	0.977	0.914	–	–
S. aureus Newman [5], first compound 0.25 µg/mL	–	0.97	0.879	–	–
S. aureus Newman [5], first compound 0.5 µg/mL	–	0.964	0.914	–	–
S. pneumoniae D39V [6], first compound 1 µg/mL	0.916	0.942	0.619	0.23	0.0913
S. pneumoniae D39V [6], first compound 2 µg/mL	0.917	0.905	0.625	0.245	0.0924
S. pneumoniae D39V [6], first compound 4 µg/mL	0.93	0.966	0.643	0.256	0.0875

CC1(C)S[C@@H]2[C@H](NC(=O)[C@H](N)c3ccc(O)cc3)C(=O)N2[C@H]1C(=O)O [Amoxicillin] + CO/N=C(\C(=O)N[C@@H]1C(=O)N2C(C(=O)[O-])=C(C[N+]3(C)CCCC3)CS[C@H]12)c1csc(N)n1 [Cefepime]
Details	Bliss interaction score
B. subtilis 168	0.0811
S. aureus DSM 20231 [1]	0.0643
S. aureus Newman [2]	-0.0522
S. pneumoniae D39V [3]	-0.0542

Details	fitness
S. aureus DSM 20231 [4], first compound 0.0625 µg/mL, partner 0.125 µg/mL	0.566
S. aureus DSM 20231 [4], first compound 0.0625 µg/mL, partner 0.25 µg/mL	0.553
S. aureus DSM 20231 [4], first compound 0.0625 µg/mL, partner 0.5 µg/mL	0.499
S. aureus DSM 20231 [4], first compound 0.125 µg/mL, partner 0.125 µg/mL	0.393
S. aureus DSM 20231 [4], first compound 0.125 µg/mL, partner 0.25 µg/mL	0.477
S. aureus DSM 20231 [4], first compound 0.25 µg/mL, partner 0.125 µg/mL	0.307
S. aureus DSM 20231 [4], first compound 0.25 µg/mL, partner 0.25 µg/mL	0.195
S. aureus DSM 20231 [4], first compound 0.25 µg/mL, partner 0.5 µg/mL	0.0559
S. aureus DSM 20231 [4], first compound 0.5 µg/mL, partner 0.125 µg/mL	0
S. aureus DSM 20231 [4], first compound 0.5 µg/mL, partner 0.25 µg/mL	0.0413
S. aureus DSM 20231 [4], first compound 0.5 µg/mL, partner 0.5 µg/mL	0.0026
S. aureus Newman [5], first compound 0.0625 µg/mL, partner 0.125 µg/mL	0.829
S. aureus Newman [5], first compound 0.0625 µg/mL, partner 0.25 µg/mL	0.792
S. aureus Newman [5], first compound 0.0625 µg/mL, partner 0.5 µg/mL	0.707
S. aureus Newman [5], first compound 0.125 µg/mL, partner 0.125 µg/mL	0.906
S. aureus Newman [5], first compound 0.125 µg/mL, partner 0.25 µg/mL	0.788
S. aureus Newman [5], first compound 0.125 µg/mL, partner 0.5 µg/mL	0.736
S. aureus Newman [5], first compound 0.25 µg/mL, partner 0.125 µg/mL	0.851
S. aureus Newman [5], first compound 0.25 µg/mL, partner 0.25 µg/mL	0.725
S. aureus Newman [5], first compound 0.25 µg/mL, partner 0.5 µg/mL	0.753
S. pneumoniae D39V [6], first compound 0.0008 µg/mL, partner 0.007 µg/mL	0.977
S. pneumoniae D39V [6], first compound 0.0008 µg/mL, partner 0.014 µg/mL	0.982
S. pneumoniae D39V [6], first compound 0.0008 µg/mL, partner 0.028 µg/mL	0.849
S. pneumoniae D39V [6], first compound 0.0015 µg/mL, partner 0.007 µg/mL	0.989
S. pneumoniae D39V [6], first compound 0.0015 µg/mL, partner 0.0078 µg/mL	≥ 1
S. pneumoniae D39V [6], first compound 0.0015 µg/mL, partner 0.014 µg/mL	0.959
S. pneumoniae D39V [6], first compound 0.0015 µg/mL, partner 0.0155 µg/mL	≥ 1
S. pneumoniae D39V [6], first compound 0.0015 µg/mL, partner 0.028 µg/mL	0.82
S. pneumoniae D39V [6], first compound 0.0015 µg/mL, partner 0.031 µg/mL	0.792
S. pneumoniae D39V [6], first compound 0.003 µg/mL, partner 0.007 µg/mL	0.943
S. pneumoniae D39V [6], first compound 0.003 µg/mL, partner 0.0078 µg/mL	≥ 1
S. pneumoniae D39V [6], first compound 0.003 µg/mL, partner 0.014 µg/mL	0.942
S. pneumoniae D39V [6], first compound 0.003 µg/mL, partner 0.0155 µg/mL	0.907
S. pneumoniae D39V [6], first compound 0.003 µg/mL, partner 0.028 µg/mL	0.813
S. pneumoniae D39V [6], first compound 0.003 µg/mL, partner 0.031 µg/mL	0.499

fitness, S. pneumoniae D39V [6], one replicate
Details	partner 0.0078 µg/mL	partner 0.0155 µg/mL	partner 0.031 µg/mL
first compound 0.0008 µg/mL	≥ 1	≥ 1	0.811
first compound 0.006 µg/mL	0.484	0.384	0.103
